The nature of data set [1]: Phase 1b exploratory PK of xanomeline in healthy elderly subjects given KarXT. The settings on record: for blood levels in healthy elderly subjects compared with adults under 65: Cohorts 1 and 2, lower oral doses; for Cmax: human, plasma, oral. The format is in vivo, human. How it is done: (§1) The purpose of this Phase 1b clinical trial was to evaluate the safety and tolerability of KarXT in healthy elderly volunteers and to assess its potential efficacy and safety in dementia-related psychosis (DRP). In the Phase 1b trial, the various doses and ratios were evaluated for both xanomeline and trospium in healthy elderly volunteers using a flexible dosing protocol titrated over about 2 to 3 weeks. The maximum dose was reached on Day 12, 15, and 17 in Cohorts 1, 2, and 3, respectively. Dosing lasted a total of 14, 18, and 20 days, respectively. Each cohort consisted of 16 healthy elderly volunteers.
(§2) This was a Phase 1, randomized, double-blind, multiple-dose, adaptive-design study evaluating the safety, tolerability, and exploratory PK of KarXT in healthy elderly subjects. The study consisted of a screening period of up to 28 days. This inpatient investigative period included a treatment period and a post-treatment observation period. A follow-up visit was completed 7±3 days after administering the final dose of the study drug. For Cohort 1, the inpatient investigative period was up to 17 days, including admission, a treatment period of up to 14 days, and a 2-day post-treatment observation period. For Cohort 2, the inpatient investigative period was up to 21 days, including admission, a treatment period of up to 18 days, and a 2-day post-treatment observation period. For Cohort 3, the inpatient investigative period was up to 23 days, including admission, a treatment period of up to 20 days, and a 2-day post-treatment observation period.
Subjects assigned to active treatment in Cohorts 1 and 2 started treatment with a lead-in dose of KarXT for 2 days. Subjects assigned to active treatment in Cohort 3 started treatment with a lead-in dose of KarXT for 4 days. KarXT doses were increased beginning on Day 3 (or Day 5 for Cohort 3) according to cohort-specific plans (FIGURE S 1) to achieve the following final cohort-specific total daily dose (TDD) of KarXT, if tolerated: • Cohort 1: 200/40 mg • Cohort 2: 200/30 mg • Cohort 3: 150/20 mg
The assessment of adverse events, clinical laboratory samples, electrocardiograms (ECGs), vital signs (including orthostatic vital signs), urine output monitoring, Columbia-Suicide Severity Rating Scale (C-SSRS), serial PK sampling, and collecting saliva to measure saliva volume were performed at defined time points during the study.
Table 2 contains the xanomeline Cmax data collected on the final day of the dosing period for cohorts 1, 2, and 3 in the healthy elderly trial compared to day 28 (last day PK data was collected) in the EMERGENT-1 trial for a patient population of ages 18-60 inclusive.

For data set [2] the following is noted: 25-75 mg TID, 75-225 mg TDD; cited from earlier work.
The conditions of data set [3]: 125/30 mg dose group in EMERGENT-1, day 28, ages 18-60, TDD 250 mg; cited from earlier work.
The conditions of data set [4]: 26-week study of Alzheimer's disease; cited from earlier work.
The nature of data set [5]: Phase 1b safety and tolerability of KarXT in healthy elderly subjects (adverse events). The format is in vivo, human. Particulars: 30 mg TDD versus 40 mg TDD, given with xanomeline, normal elderly volunteers. As for the experimental part: as §1
as §2, with “For Cohort 3, the inpatient investigative period was up to 23 days, including admission, a treatment period of up to 20 days, and a 2-day post-treatment observation period.” left out

As to `CCCCCCOc1nsnc1C1=CCCN(C)C1` [Xanomeline, xanomeline], the “blood levels in healthy elderly subjects compared with adults under 65” value in data set [1] is recorded as “higher blood levels”. Besides, the Cmax was determined as 7.3 ± 2 ng/mL in data set [1] (Cohort 1, final day of dosing, average dose before PK 67 mg, average TDD 172 mg); 14.2 ± 5.3 ng/mL in data set [1] (Cohort 2, final day of dosing, average dose before PK 61 mg, average TDD 156 mg); 7.2 ± 2 ng/mL in data set [1] (Cohort 3, final day of dosing, average dose before PK 39 mg, average TDD 116 mg). Besides, in data set [1] (oral xanomeline about 100 to 200 mg per day, healthy elderly volunteers), the “mean plasma levels (Cmax) compared with EMERGENT-1 (200-250 mg xanomeline)” value was “comparable to, or slightly higher than”. Moreover, the effect on schizophrenia entry in data set [2] was “alleviated”. Further, the “mean Cmax of xanomeline” value in data set [3] is 9.4 ± 1.5 ng/mL. The dropout rate in data set [4] is 56%.
As for `O=C(O[C@H]1C[C@H]2CC[C@@H](C1)[N+]21CCCC1)C(O)(c1ccccc1)c1ccccc1` [trospium, trospium chloride], the “blood levels in healthy elderly subjects compared with adults under 65” value in data set [1] is “higher blood levels”. The “tolerability by trospium dose” value in data set [5] was “performed better”.

By Cmax is commonly meant the highest concentration seen after dosing.

(Values after US20240156802A1, “METHODS FOR TREATING DISORDERS AMELIORATED BY MUSCARINIC RECEPTOR ACTIVATION” (KARUNA THERAPEUTICS, INC., priority 2021, published 2024).)
